Experimental data: article PMC5481773, “Structural insights into the function of ZRANB3 in replication stress response” (Nature Communications, 2017)

Legend:
ZRANB3 = ZRANB3 nuclease assay with non-hydrolysable ATP analogues; assay type: biochemical, Human; conditions: wild-type ZRANB3, fluorescently labelled DNA substrate, native PAGE (Fig. 3d)
From the text: Figure 3 Characterisation of the ZRANB3 HNH active site. (a) Overlay of the T4 endonuclease VII (yellow) and the ZRANB3 HNH (white) structures. […] (b) Overlay of the T4 endonuclease VII (yellow, labels in italics) and the ZRANB3 HNH (white) structures. Mg^2+ ion in T4 endonuclease is shown as a purple sphere. His1021, Asp1020 and His1045 in the HNH structure overlap with the active site residues of T4 endonuclease VII. (c) Nuclease assay with the wild-type and mutant ZRANB3 proteins in the presence and absence of ATP. Reactions were analysed by native poly-acrylamide gel electrophoresis. Indicated are mobilities of the fluorescently labelled DNA substrate and product. (d) Nuclease assay with non-hydrolysable ATP homologues. Shown are controls with the wild-type ZRANB3 and the ATPase dead K65R mutant in the presence of ATP.
Oligonucleotides used in the nuclease assays (5′-[…]-[…]-3′ and Cy3 5′-end-labelled 5′-[…]-[…]-3′) were incubated in 10 mM Tris-HCl pH 7.5, 50 mM NaCl for 3 min at 94 °C, after which the reactions were allowed to gradually cool down.
The nuclease assays with ZRANB3 was performed essentially as described in ref. [9]. Briefly, reaction mixtures containing the indicated nuclease (200 nM) and fluorescently labelled DNA substrate (10 nM) in 10 μl of reaction buffer (50 mM Tris-HCl; 50 mM NaCl; 5 mM MgCl2; 2 mM ATP (Sigma); pH 7.5) were incubated at 30 °C for 60 min. The reactions were stopped by incubation with 0.1% SDS and 4 mg ml^−1 of proteinase K at 30 °C for 45 min. The reactions were then mixed with sucrose (10% final concentration) and resolved in a 10% polyacrylamide gel in 0.5 × TBE buffer (45 mM Tris-borate, 1 mM EDTA; pH 7.5). The fluorescent DNA species were visualized and quantified using Pharos Mx imager and Quantity one software (BioRad).

PCNA = PCNA pull-down with biotinylated PIP box and APIM motif peptides; assay type: binding; conditions: biotinylated peptides on streptavidin beads, recombinant PCNA, Western blotting with PCNA antibody (Fig. 4c)
Description: Figure 4 Stimulation of the ZRANB3 nuclease activity by PCNA. (a) Stimulation of FEN1 and ZRANB3 nuclease activities by PCNA. FEN1 or ZRANB3 nucleases were incubated with the DNA substrate and increasing concentrations of PCNA (0.375, 0.75, 1.5 and 3 μM), in the presence (ZRANB3) or absence (FEN1) of ATP. (b) Domain structure of ZRANB3. Conservation of the PIP box and the APIM motif residues among ZRANB3 proteins are shown in the alignments below. Mutated conserved residues in the PIP box and the APIM motif are indicated by arrows. (c) Interactions of the ZRANB3 PIP box and APIM motif with PCNA. Biotinylated PIP box and APIM motif peptides were bound to streptavidin beads and incubated with recombinant PCNA. The interaction was assayed by Western blotting with PCNA antibody. […] (d) Effect of PCNA (0.375, 0.75, 1.5 and 3 μM) on ZRANB3 nuclease activity assayed with the wild-type ZRANB3 and ZRANB3 PCNA binding mutants (ZRANB3-PIP*, ZRANB3-ΔAPIM and ZRANB3-PIP*ΔAPIM). (e) Quantification of nuclease activities in the presence of increasing concentrations of PCNA. […]
Biotinylated PIP-box and APIM-motif peptides were synthesized by Genscript. […] The beads were subsequently washed with the same buffer to remove unbound PCNA, after which they were boiled in the SDS-PAGE loading buffer, and analysed by anti-PCNA Western blotting (ab18197, 1:1,000 dilution).

Row | Molecule | ZRANB3 endonuclease activity on substitution of ATP by non-hydrolysable ATP analogue (ZRANB3) | Interaction with PCNA (pull-down) (PCNA)
1 | Nc1ncnc2c1ncn2[C@@H]1O[C@H](COP(=O)(O)OP(=O)(O)CP(=O)(O)O)[C@@H](O)[C@H]1O [AMP-PCP] | complete loss of activity | –
2 | Nc1ncnc2c1ncn2[C@@H]1O[C@H](COP(=O)(O)OP(=O)(O)NP(=O)(O)O)[C@@H](O)[C@H]1O [AMP-PNP] | complete loss of activity | –
3 | Nc1ncnc2c1ncn2[C@@H]1O[C@H](CO[P@](=O)(O)O[P@](=O)(O)O[P@@](=O)(O)S)[C@@H](O)[C@H]1O [ATPγS] | complete loss of activity | –
4 | APIM*: biotinylated ZRANB3 APIM motif peptide with F1075A mutation (pull-down) | – | abrogated the interaction with PCNA
